Results published in ChEMBL document CHEMBL1129695, “Synthesis and structure-activity relationships of 6-substituted androst-4-ene analogs as aromatase inhibitors” (J Med Chem, 1996).
pIC50, pKi: −log10 of the molar value.

Experiments:
Aromatase [1] = biological target: T1, Aromatase (Homo sapiens, UniProt P11511)
T1 sequence (P11511 whole entry): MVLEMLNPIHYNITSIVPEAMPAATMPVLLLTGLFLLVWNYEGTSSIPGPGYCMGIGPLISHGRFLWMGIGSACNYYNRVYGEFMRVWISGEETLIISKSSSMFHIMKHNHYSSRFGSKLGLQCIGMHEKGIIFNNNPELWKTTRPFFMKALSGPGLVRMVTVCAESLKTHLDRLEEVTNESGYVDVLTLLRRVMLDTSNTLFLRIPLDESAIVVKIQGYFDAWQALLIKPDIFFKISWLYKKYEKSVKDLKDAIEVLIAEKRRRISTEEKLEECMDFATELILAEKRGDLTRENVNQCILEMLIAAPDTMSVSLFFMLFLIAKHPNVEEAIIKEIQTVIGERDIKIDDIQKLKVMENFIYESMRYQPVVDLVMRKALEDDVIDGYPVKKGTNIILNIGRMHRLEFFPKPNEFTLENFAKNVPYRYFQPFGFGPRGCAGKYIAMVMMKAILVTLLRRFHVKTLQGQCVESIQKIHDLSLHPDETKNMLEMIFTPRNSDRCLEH
Description: In vitro inhibition of cytochrome P450 19A1 in human placental microsomes

Aromatase [2] = biological target: T1, Aromatase; remark: listed apart in the source
Description: Apparent inhibition constant (Ki) against Cytochrome P450 19A1

CCC[C@H]1CC2C3CCC(=O)C3(C)CCC2C2(C)CCCC=C12 (some centres undefined)
pIC50 (Aromatase [1]): 6.64
pKi (Aromatase [2]): 7.52

CC(=O)O[C@@H]1CC2C3CCC(=O)C3(C)CCC2C2(C)CCCC=C12 (some centres undefined)
pIC50 (Aromatase [1]): 6.59
pKi (Aromatase [2]): 7.62

C[C@@H]1CC2C3CCC(=O)C3(C)CCC2C2(C)CCCC=C12 (some centres undefined)
pIC50 (Aromatase [1]): 7.31
pKi (Aromatase [2]): 8.28

CCCCC[C@H]1CC2C3CCC(=O)C3(C)CCC2C2(C)CCCC=C12 (some centres undefined)
pIC50 (Aromatase [1]): 5.05
pKi (Aromatase [2]): 6.40

CC[C@@H]1CC2C(CCC3(C)C(O)CCC23)C2(C)CCCC=C12 (some centres undefined)
pIC50 (Aromatase [1]): 5.48
pKi (Aromatase [2]): 6.47

CCCCC[C@H]1CC2C(CCC3(C)C(O)CCC23)C2(C)CCCC=C12 (some centres undefined)
pIC50 (Aromatase [1]): < 4.30
pKi (Aromatase [2]): 4.36

CO[C@H]1CC2C3CCC(=O)C3(C)CCC2C2(C)CCCC=C12 (some centres undefined)
pIC50 (Aromatase [1]): 6.92
pKi (Aromatase [2]): 7.92

CC[C@@H]1CC2C3CCC(=O)C3(C)CCC2C2(C)CCCC=C12 (some centres undefined)
pIC50 (Aromatase [1]): 6.49
pKi (Aromatase [2]): 7.37

CO[C@@H]1CC2C3CCC(=O)C3(C)CCC2C2(C)CCCC=C12 (some centres undefined)
pIC50 (Aromatase [1]): 6.89
pKi (Aromatase [2]): 7.92

C[C@H]1CC2C3CCC(=O)C3(C)CCC2C2(C)CCCC=C12 (some centres undefined)
pIC50 (Aromatase [1]): 7.43
pKi (Aromatase [2]): 8.51

CCC[C@@H]1CC2C3CCC(=O)C3(C)CCC2C2(C)CCCC=C12 (some centres undefined)
pIC50 (Aromatase [1]): 6.36
pKi (Aromatase [2]): 7.29

CC[C@H]1CC2C3CCC(=O)C3(C)CCC2C2(C)CCCC=C12 (some centres undefined)
pIC50 (Aromatase [1]): 6.96
pKi (Aromatase [2]): 7.37

C[C@H]1CC2C(CCC3(C)C(O)CCC23)C2(C)CCCC=C12 (some centres undefined)
pIC50 (Aromatase [1]): 5.43
pKi (Aromatase [2]): 6.42

CCCCCCCC[C@@H]1CC2C(CCC3(C)C(O)CCC23)C2(C)CCCC=C12 (some centres undefined)
pIC50 (Aromatase [1]): < 4.30

CC(=O)O[C@H]1CC2C3CCC(=O)C3(C)CCC2C2(C)CCCC=C12 (some centres undefined)
pIC50 (Aromatase [1]): 6.80
pKi (Aromatase [2]): 7.74

CCCCC[C@@H]1CC2C3CCC(=O)C3(C)CCC2C2(C)CCCC=C12 (some centres undefined)
pIC50 (Aromatase [1]): 4.92
pKi (Aromatase [2]): 5.92

CCCCCCCC[C@@H]1CC2C3CCC(=O)C3(C)CCC2C2(C)CCCC=C12 (some centres undefined)
pIC50 (Aromatase [1]): < 4.30
pKi (Aromatase [2]): 5.59

CCCCC[C@@H]1CC2C(CCC3(C)C(O)CCC23)C2(C)CCCC=C12 (some centres undefined)
pIC50 (Aromatase [1]): < 4.30
pKi (Aromatase [2]): 4.00

CC12CCCC=C1CCC1C2CCC2(C)C1CC[C@@H]2O (some centres undefined)
pIC50 (Aromatase [1]): 6.44
pKi (Aromatase [2]): 7.35

C[C@@H]1CC2C(CCC3(C)C(O)CCC23)C2(C)CCCC=C12 (some centres undefined)
pIC50 (Aromatase [1]): 5.80
pKi (Aromatase [2]): 6.85

CCCCCCCC[C@H]1CC2C(CCC3(C)C(O)CCC23)C2(C)CCCC=C12 (some centres undefined)
pIC50 (Aromatase [1]): < 4.30

CCCCCCCC[C@H]1CC2C3CCC(=O)C3(C)CCC2C2(C)CCCC=C12 (some centres undefined)
pIC50 (Aromatase [1]): < 4.30
pKi (Aromatase [2]): 5.39

CC[C@H]1CC2C(CCC3(C)C(O)CCC23)C2(C)CCCC=C12 (some centres undefined)
pIC50 (Aromatase [1]): 5.89
pKi (Aromatase [2]): 6.74
